Paper PMC8297771 (PLoS Pathogens, 2021)
Where two headings read alike, the source gives them in different places.

Assays:
[1] = target: T1, IN-RNA binding (His6 tagged IN, HIV-1 TAR RNA) (Human immunodeficiency virus type 1 group M subtype B, UniProt P12497); assay: Alpha Screen inhibition assay for IN binding to RNA; type: biochemical
T1 construct: incubated with 100 nM His6 tagged IN
Protocol: Primary antiviral activity of ALLINIs was observed during virion maturation, where they inhibit IN-RNA interactions, we examined the ability of STP0404 to inhibit recombinant IN binding to synthetic TAR RNA using Alpha screen based assay. Briefly, different concentrations of STP0404 were incubated with 100 nM His6 tagged IN in buffer containing 100 mM NaCl, 1 mM MgCl2, 1 mM DTT, 1mg/mL BSA, 25 mM Tris, pH 7.4 at 4°C for 2 hrs. This mixture was then added to the nickel acceptor beads while biotinylated-TAR RNA was added to the streptavidin donor beads. After 2-hrs incubation at 4°C, the RNA mixture was added to the IN-drug mixture and the reading was taken after 1 hr incubation at 4°C by PerkinElmer Life Sciences Enspire multimode plate reader. The IC50 values were calculated by OriginLab software.

IN-LEDGF/p75 binding = IN-LEDGF/p75 binding (Human immunodeficiency virus type 1 group M subtype B, UniProt P12497); assay: HTRF-based inhibition assay for LEDGF/p75 binding to IN; type: biochemical, HIV-1
Protocol: We examined the ability of STP0404 to inhibit IN binding to LEDGF/p75 using another HTRF-based assay. Briefly, 10 nM His-tagged IN was pre-incubated in a binding buffer (150 mm NaCl, 2 mm MgCl2, 0.1% Nonidet P-40, 1 mg/ml BSA, 25 mm Tris, pH 7.4) with the compound for 30 min at room temperature, and then 10 nM FLAG-tagged LEDGF/p75 was added to the reaction. This was followed by addition of 6.6 nM anti-His6-XL665 and 0.45 nM anti-FLAG-EuCryptate antibodies (Cisbio, Inc., Bedford, MA).

bone marrow cells = assay: Micronucleus study by oral administration in rats (GLP); type: in vivo, SD rats; conditions: 500, 1000 and 2000 mg/kg/day
Protocol: Bacterial reverse mutation assay (Study no. YL18407). The bacterial reverse mutation assay of STP0404 was performed in two conditions (with or without metabolic activation) for the dose range-finding test (doses of STP0404rangingfrom 2.29 to 5,000μg/plate) and the main test (doses of STP0404 ranging from 19.5 to 5,000 μg/plate) in comparison with negative control (DMSO) and active controls (sodium azide, 2-(2-furyl)-3-(5-nitro-2-furyl) acrylamide, 2-aminoanthracene, 9-aminoacridine hydrochloride). Salmonella typhimurium (TA100, TA1535) and Escherichia coli (WP2uvrA) were used for detection of base-pair substitutions. Salmonella typhimurium (TA98, TA1537) was used for detection of frameshift mutations. Chromosomal Aberration Test of STP0404 in Cultured Mammalian Cells (Study no. YL18408). Presence/absence of genotoxicity of STP0404 was determined using chromosomal aberration test carried out in CHL/IU cells. The test comprised a dose range-finding test and a main test. Micronucleus Study of STP0404 by oral administration in Rats (Study no. YL18409). STP0404 was administered orally to SD rats (3/group in preliminary test and 6/group in the main test) at dose levels of 500, 1000 and 2000 mg/kg/day once daily for 2 days in a two-test study (preliminary test and main test) to investigate the genotoxicity profile of STP0404. […] Bone marrow smear slides were evaluated (INA Research, Japan).

[2] = Four-week oral dose toxicology study in rats (GLP); design: species or system SD rats; conditions: Sprague-Dawley, rat, in vivo, read-out: no-observed-adverse-effect level (NOAEL)
Protocol: STP0404 was administered orally to 10 or 15 SD rats/sex/group at dose levels of 100, 300 and 600 mg/kg/day for 4 weeks to evaluate its potential toxicity. The reversibility of any effects was also assessed following a 2-week untreated recovery period. Control animals (15 animals/sex) received the vehicle, 0.5 w/v% methylcellulose solution, in a similar manner for comparison. In addition, plasma STP0404 concentrations were determined using TK satellite animals (3 animals/sex/group) to evaluate systemic exposure of the animals to the test article. (Study no. YL18402). STP0404 was administered orally as a capsule to 4 or 6 dogs/sex/group at dose levels of 30, 60 and 90 mg/kg/day for 4 weeks to evaluate its potential toxicity. Control animals (6 animals/sex) received empty gelatin capsules in a similar manner for comparison. The reversibility of any effects was also assessed following a 2-week untreated recovery period (2 animals/sex/group for the control and 90 mg/kg/day groups). In addition, plasma STP0404 concentrations were determined using all tested animals (including control group) to evaluate systemic exposure of the animals to the test article (Study no. YL18403). The test was performed according to the Standard Operating Procedures (SOP) the Good Laboratory Practice (GLP) system of the INA Research.

[3] = Safety pharmacology: effects on the central nervous system in rats; type: in vivo; conditions: single oral 100, 300 and 600 mg/kg
Protocol: Effects on the Respiratory System in Rats (Study no. YL18404). Four groups of eight male rats were given a single oral administration of STP0404 at doses of 100, 300 and 600 mg/kg. STP0404 was administered as a suspension in 0.5% MC in a volume of 10 mL/kg. […] Measurements were conducted at pre-dosing and 0.5, 1, 3, 6 12 and 24 hrs post-dosing, and respiratory rate, tidal volume and minute volume were investigated (INA Research, Japan). Effects on the Central Nervous System in Rats (Study no. YL18405). Four groups of six male rats were given a single oral administration of STP0404 at doses of 0 (vehicle), 100, 300 and 600 mg/kg. The test article was administered as a suspension in 0.5% MC in a volume of 10 mL/kg. […] Blinded observations were conducted pre-dosing and 0.5, 1, 3, 6, 12 and 24 hrs post-dosing on rats body temperature, pupil size, landing foot-splay and grip strength in functional observational battery. Effects on the Cardiovascular System in Dogs (Study no. YL18406). STP0404 at dose levels of 30, 60 and 90 mg/kg were administered orally (by capsules) to four male Beagle dogs in a design with 7-day intervals between doses. Heart rate, blood pressure (systolic, diastolic and mean) and electrocardiographic (ECG) parameters (PR, QT and QTc intervals and QRS duration) were evaluated at pre-dosing and 0.5, 1, 2, 4, 8 and 24 hrs post-dosing. […]

Question: With `Cc1nc2c(c(C)c(C)n2Cc2cnn(C)c2)c(-c2ccc(Cl)cc2)c1[C@H](OC(C)(C)C)C(=O)O` [STP0404] as the molecule, how does the IC50 [1] read?
Answer: 0.02 ± 0.003 µM

Question: What about the IC50 (IN-LEDGF/p75 binding) of the same molecule?
Answer: 0.19 ± 0.07 µM

Question: And the “bone marrow cell proliferation inhibitory potential” value (bone marrow cells)?
Answer: lacked

Question: What about the micronucleus-inducing potential (bone marrow cells) of the same molecule?
Answer: lacked

Question: What about the NOAEL at 4 weeks ([2]; female rats) of the same molecule?
Answer: 600 mg/kg/day

Question: What about the NOAEL at 4 weeks ([2]; male rats) of the same molecule?
Answer: 300 mg/kg/day

Question: And the “safety pharmacology concerns, central nervous system” value [3]?
Answer: did not induce any safety pharmacology concerns
